Test results taken from patent publication US20020077345A1, “Cis-substituted aminocycloalkylpyrrolidine derivatives” (priority 1997, published 2002).
Values after ≈ are worked out from the molar mass of the structure shown. Structures can show the parent of a compound that is named as a salt. Where two headings read alike, the source gives them in different places. Marks after values point to notes of the source that are not given here.

Columns and labels:
Slc:ddy male mice = experiment: Acute toxicity, intravenous administration to mice; type: in vivo; conditions: deaths/mice dosed
Description: A solution of 5-amino-7-[4-(R)-(1-aminocyclopropyl)-3-(S)-fluoro-1-pyrrolidinyl]-6-fluoro-1-[2-(S)-fluoro-1-(R)-cyclopropyl]-1,4-dihydro-8-methyl-4-oxoquinoline-3-carboxylic acid (abbreviated as cis) hydrochloride (Example 2) or 5-amino-7-[4-(R)-(1-aminocyclopropyl)-3-(R)-fluoro-1-pyrrolidinyl]-6-fluoro-1-(2-(S)-fluoro-1-(R)-cyclopropyl]-1,4-dihydro-8-methyl-4-oxoquinoline-3-carboxylic acid (abbreviated as trans) hydrochloride in distilled water for injection was administered intravenously to Slc:ddy male mice (five mice per group) and the symptoms are observed. The results are as follows.

X. maltophilia, 11D-1275 = experiment: Antimicrobial activity (MIC), standard method of Japan Society of Chemotherapy; type: cell-based
Description: (§1) To further illustrate the present invention in greater detail, and not by way of limitation, the following Examples will be given. The antimicrobial activity of each target compound was evaluated in accordance with the standard method specified by Japan Society of Chemotherapy and expressed in MIC (μg/ml).

S. flexneli, 2A 5503 = experiment: as above; type: cell-based
Description: as §1

[1] = system: Str. faecalis, ATCC-19433; experiment: as above; type: cell-based
Description: as §1

S. epidermidis, 56500 = experiment: as above; type: cell-based
Description: as §1

Pr. mirabilis, IFO-3849 = experiment: as above; type: cell-based
Description: as §1

S. aureus, 209P = experiment: as above; type: cell-based
Description: as §1

E. coli, NIHJ = experiment: as above; type: cell-based
Description: as §1

Ser. marcescens, 10100 = experiment: as above; type: cell-based
Description: as §1

S. aureus, 870307 = experiment: as above; type: cell-based
Description: as §1

Str. pyogenes, G-36 = experiment: as above; type: cell-based
Description: as §1

Ps. aeruginosa, 32104 = experiment: as above; type: cell-based
Description: as §1

Pr. vulgaris, 08601 = experiment: as above; type: cell-based
Description: as §1

Ps. aeruginosa, 32121 = experiment: as above; type: cell-based
Description: as §1

[2] = 150 mg/kg intravenously, five per group
[3] = Stenotrophomonas maltophilia, 11D1275, read-out: MIC
[4] = Enterococcus faecalis, ATCC19433, read-out: MIC
[5] = Staphylococcus epidermidis, read-out: MIC
[6] = Proteus mirabilis, IFO3849, read-out: MIC
[7] = Staphylococcus aureus, read-out: MIC
[8] = Escherichia coli, read-out: MIC
[9] = Serratia marcescens, read-out: MIC
[10] = Streptococcus pyogenes, G36, read-out: MIC
[11] = Pseudomonas aeruginosa, read-out: MIC
[12] = Proteus vulgaris, read-out: MIC

Row | Structure (SMILES) | Number of death (Slc:ddy male mice; [2]) | MIC (X. maltophilia, 11D-1275; [3]) [µg/mL] | MIC (S. flexneli, 2A 5503) [µg/mL] | MIC [1, 4] [µg/mL] | MIC (S. epidermidis, 56500; [5]) [µg/mL] | MIC (Pr. mirabilis, IFO-3849; [6]) [µg/mL] | MIC (S. aureus, 209P; [7]) [µg/mL] | MIC (E. coli, NIHJ; [8]) [µg/mL] | MIC (Ser. marcescens, 10100; [9]) [µg/mL] | MIC (S. aureus, 870307; [7]) [µg/mL] | MIC (Str. pyogenes, G-36; [10]) [µg/mL] | MIC (Ps. aeruginosa, 32104; [11]) [µg/mL] | MIC (Pr. vulgaris, 08601; [12]) [µg/mL] | MIC (Ps. aeruginosa, 32121; [11]) [µg/mL] | further results
1 | Cc1c(N2CC(F)[C@@H](C3(N)CCC3)C2)c(F)c(N)c2c(=O)c(C(=O)O)cn(C3CC3F)c12 (single isomer, unassigned; isomer b) [Example 9] | same result | – | – | – | – | – | – | – | – | – | – | – | – | – | –
2 | Cc1c(N2CC(CO)C(C3(N)CC3)C2)c(F)c(N)c2c(=O)c(C(=O)O)cn(C3CC3)c12 (stereo not drawn) [Example 1, 5-Amino-7-[cis-4-(1-aminocycloproiyl)-3-hydroxymethyl-1-pyrrolidinyl]-1-cyclopropyl-6-fluoro-1,4-dihydro-8-methyl-4-oxoquinoline-3-carboxylic acid] | same result | – | – | – | – | – | – | – | – | – | – | – | – | – | –
3 | Cc1c(N2C[C@@H](F)[C@@H](C3(N)CC3)C2)c(F)c(N)c2c(=O)c(C(=O)O)cn([C@@H]3C[C@@H]3F)c12 [Example 2, 5-Amino-7-[4-(R)-(1-aminocyclopropyl)-3-(S)-fluoro-1-pyrrolidinyl]-6-fluoro-1-[2-(S)-fluoro-1-(R)-cyclopropyl1-1,4-dihydro-8-methyl-4-oxoquinoline-3-carboxylic acid hydrochloride] | 0/5 | 0.05 | ≤ 0.003 | 0.025 | ≤ 0.003 | 0.025 | ≤ 0.003 | ≤ 0.003 | 0.05 | 0.025 | ≤ 0.003 | 0.1 | 0.013 | 0.05 | –
4 | COc1c(N2C[C@@H](F)[C@@H](C3(N)CC3)C2)c(F)c(N)c2c(=O)c(C(=O)O)cn([C@@H]3C[C@@H]3F)c12 [Example 3] | same result | 0.2 (≈ 0.442 µM) | 0.006 (≈ 0.0133 µM) | 0.05 (≈ 0.111 µM) | 0.006 (≈ 0.0133 µM) | 0.1 (≈ 0.221 µM) | ≤ 0.003 | 0.006 (≈ 0.0133 µM) | 0.2 (≈ 0.442 µM) | 0.025 (≈ 0.0553 µM) | 0.013 (≈ 0.0287 µM) | 0.39 (≈ 0.862 µM) | 0.05 (≈ 0.111 µM) | 0.2 (≈ 0.442 µM) | –
5 | C[C@H]1COc2c(N3C[C@@H](F)[C@@H](C4(N)CC4)C3)c(F)cc3c(=O)c(C(=O)O)cn1c23 [Example 4, 10-[4-(R)-(1-Aminocyclopropyl)-3-(S)-fluoro-1-pyrrolidinyl]-9-fluoro-2,3-dihydro-3-(S)-methyl-7-oxo-7H-pyrido[1,2,3-de][1,4]benzoxazine-6-carboxylic acid] | same result | – | – | – | – | – | – | – | – | – | – | – | – | – | –
6 | COc1c(N2C[C@@H](F)[C@@H](C3(N)CC3)C2)c(F)cc2c(=O)c(C(=O)O)cn([C@@H]3C[C@@H]3F)c12 [Example 5, 7-[4-(R)-(1-Aminocyclopropyl)-3-(S)-fluoro-1-pyrrolidinyl]-6-fluoro-1-[2-(S)-fluoro-1-(R)-cycloproyyl]-1,4-dihydro-8-methoxy-4-oxoquinoline-3-carboxylic acid] | same result | – | – | – | – | – | – | – | – | – | – | – | – | – | MIC (X. maltophilia, 11D-1275): 0.20 µg/mL (≈ 0.457 µM); MIC (S. flexneli, 2A 5503; S. flexneli, 2A 5503): 0.006 µg/mL (≈ 0.0137 µM); MIC [1]: 0.025 µg/mL (≈ 0.0572 µM); MIC (S. epidermidis, 56500): 0.013 µg/mL (≈ 0.0297 µM); MIC (Pr. mirabilis, IFO-3849): 0.05 µg/mL (≈ 0.114 µM); MIC (S. aureus, 209P): ≦0.003 μg/ml; MIC (E. coli, NIHJ): ≦0.003 μg/ml; MIC (Ser. marcescens, 10100): 0.10 µg/mL (≈ 0.229 µM); MIC (S. aureus, 870307): 0.025 µg/mL (≈ 0.0572 µM); MIC (Str. pyogenes, G-36): 0.006 µg/mL (≈ 0.0137 µM); MIC (Ps. aeruginosa, 32104): 0.20 µg/mL (≈ 0.457 µM); MIC (Pr. vulgaris, 08601): 0.006 µg/mL (≈ 0.0137 µM); MIC (Ps. aeruginosa, 32121): 0.10 µg/mL (≈ 0.229 µM)
7 | C[C@H]1COc2c(N3C[C@@H](F)[C@@H](C4(N)CC4)C3)c(F)cc3c(=O)c(C(=O)O)cn1c23.Cl [Example 6, 10-[4-(R)-(1-Aminocyclopropyl)-3-(S)-fluoro-1-pyrrolidinyl]-9-fluoro-2,3-dihydro-3-(S)-methyl-7-oxo-7H-pyrido[1,2,3-de][1,4]benzoxazine-6-carboxylic acid hydrochloride] | – | 0.39 | 0.01 | 0.05 | 0.025 | 0.1 | 0.006 | 0.01 | 0.1 | 0.2 | 0.01 | 0.39 | 0.025 | 0.1 | –
8 | C[C@H]1COc2c(N3C[C@@H](F)[C@@H](C4(N)CC4)C3)c(F)c(N)c3c(=O)c(C(=O)O)cn1c23 [Example 8, 8-Amino-10-[4-(R)-(1-aminocyclopropyl)-3-(S)-fluoro-1-pyrrolidinyl]-9-fluoro-2,3-dihydro-3-(S)-methyl-7-oxo-7H-pyrido[1,2,3-de][1,4]benzoxazine-6-carboxylic acid] | same result | 0.39 (≈ 0.928 µM) | 0.013 (≈ 0.0309 µM) | 0.05 (≈ 0.119 µM) | 0.013 (≈ 0.0309 µM) | 0.1 (≈ 0.238 µM) | 0.006 (≈ 0.0143 µM) | 0.006 (≈ 0.0143 µM) | 0.2 (≈ 0.476 µM) | 0.2 (≈ 0.476 µM) | 0.025 (≈ 0.0595 µM) | 0.39 (≈ 0.928 µM) | 0.1 (≈ 0.238 µM) | 0.2 (≈ 0.476 µM) | –
9 | Cc1c(N2C[C@H](F)[C@@H](C3(N)CC3)C2)c(F)c(N)c2c(=O)c(C(=O)O)cn([C@@H]3C[C@@H]3F)c12 [trans, 5-amino-7-[4-(R)-(1-aminocyclopropyl)-3-(R)-fluoro-1-pyrrolidinyl]-6-fluoro-1-(2-(S)-fluoro-1-(R)-cyclopropyl]-1,4-dihydro-8-methyl-4-oxoquinoline-3-carboxylic acid, reference compound] | 2/2* | – | – | – | – | – | – | – | – | – | – | – | – | – | Number of death (Slc:ddy male mice; 50 mg/kg intravenously, five per group): 0/5; Number of death (Slc:ddy male mice; 100 mg/kg intravenously, test stopped at second death): 2/2*
